Assay results published in BigSolDB 2.1.

OC[C@H]1O[C@@H](c2ccc(Cl)c(Cc3ccc(O[C@H]4CCOC4)cc3)c2)[C@H](O)[C@@H](O)[C@@H]1O
solubility (mole fraction)
Settings | in DMF | in acetonitrile | in ethanol | in ethyl acetate | in ethylene glycol | in formamide | in methanol | in n-butanol | in n-propanol
278.15 K | 0.00117 | 6.19e-07 | 2.33e-06 | 7.16e-07 | 1.16e-05 | 8.05e-05 | 1.77e-05 | 1.81e-06 | 1.59e-06
283.15 K | 0.00124 | 9.85e-07 | 3.77e-06 | 1.07e-06 | 1.48e-05 | 9.2e-05 | 2.48e-05 | 2.73e-06 | 2.43e-06
288.15 K | 0.00129 | 1.46e-06 | 4.84e-06 | 1.42e-06 | 1.91e-05 | 0.000108 | 3e-05 | 4.04e-06 | 3.39e-06
293.15 K | 0.00134 | 1.97e-06 | 6.6e-06 | 1.97e-06 | 2.43e-05 | 0.000122 | 3.65e-05 | 5.9e-06 | 4.54e-06
298.15 K | 0.00142 | 2.62e-06 | 8.45e-06 | 2.56e-06 | 3.41e-05 | 0.000143 | 4.46e-05 | 8.49e-06 | 6.09e-06
303.15 K | 0.00149 | 3.52e-06 | 1.1e-05 | 3.12e-06 | 4.21e-05 | 0.000174 | 5.54e-05 | 1.2e-05 | 7.88e-06
308.15 K | 0.00158 | 4.87e-06 | 1.4e-05 | 4.27e-06 | 5.91e-05 | 0.000202 | 6.9e-05 | 1.62e-05 | 1.04e-05
313.15 K | 0.00165 | 6.15e-06 | 1.85e-05 | 5.56e-06 | 7.01e-05 | 0.000248 | 8.53e-05 | 2.21e-05 | 1.43e-05
318.15 K | 0.00171 | 8.16e-06 | 2.43e-05 | 6.89e-06 | 8.59e-05 | 0.000303 | 0.00011 | 3.02e-05 | 1.99e-05
